According to patent US8784893B2, “Polymer formulations for delivery of bioactive agents” (Carbylan Therapeutics, Inc., priority 2007, dated 2014):

Experiment: In vitro release of solid steroid from Carb-S/PEG-DA crosslinked (CARBYLAN-SX) gels into PBS
Format: physicochemical
Settings: solid drug in gel, 37° C., after 72 hours of incubation
Procedure: A 1.75% (w/v) solution of the Carb-S (Example 2) was prepared using deionized water and the pH was adjusted to 7.4. […] A 4% (w/v) polyethylene glycol diacrylate (PEG-DA) [Mw=3400] solution was prepared using deionized water and the pH was adjusted to 7.4. […] After vortexing the mixture, 0.2 mL of the mixture was added to a 15 mL plastic centrifuge tube. […] The samples were kept at 37° C. by placing the shaker in an incubation oven that was set at 37° C. At specific intervals (24 hrs), the PBS buffer supernatant was removed from the tube and the steroid concentration in the PBS buffer was determined using UV absorption spectroscopy. […] 10 mL fresh PBS buffer was added to each tube and the tubes were returned to the shaker. This gelation and release testing was repeated in a similar manner using solid beclamethasone dipropionate (10 mg). […] Controlled Release, 1 (2000)).

SMILES: CCC(=O)OCC(=O)[C@@]1(OC(=O)CC)[C@@H](C)C[C@H]2[C@@H]3CCC4=CC(=O)C=C[C@]4(C)[C@@]3(Cl)[C@@H](O)C[C@@]21C [beclomethasone diproprionate]
- Drug detected (released) from the CARBYLAN-SX polymer matrix: less than 5%
